Experimental data: patent publication US11154529B2, “Phosphaplatin liquid formulations” (Phosplatin Therapeutics Inc., priority 2016, dated 2021)
Several values for one entry are separate records, joined by “and”; a condition that tells them apart may be missing. Equal values may be shown once.

Test: Ready-to-use formulation stability at 25° C./60% RH, 5 mg/mL (R,R)-pyrodach-2 in 10 mM Potassium Phosphate Buffer at pH 7.4, 10 mL vials
Assay type: physicochemical
Procedure: A scalable and commercially viable process for the manufacture of a ready-to-use formulation of (R,R)-pyrodach-2 in 10 mM buffer adjusted to a pH of 7.0-7.5 comprises the steps of: a) preparing a 10 mM aqueous solution of buffer; b) adding sufficient hydroxide base to effect neutralization of the added (R,R)-pyrodach-2 to reach a pH of about 7; c) adding (R,R)-pyrodach-2 and allowing it to dissolve; d) if necessary adding additional hydroxide to adjust the pH into a range of about 7.0-7.5; and e) filtering the solution under sterile conditions, filling the solution into glass vials, and covering it with a stopper and/or a cap. Stability data on two large batches of 5 mg/mL (R,R)-pyrodach-2 in 10 mM potassium phosphate buffer were generated. One such batch at pH=7.2 was evaluated at both 25° C./60% RH and refrigerated (2-8° C.) conditions, with data summarized in Table 4 and Table 5, respectively. […] Similar observations have been made for the ready-to-use liquid formulation at pH7.4, as illustrated in Table 6 and Table 7.
• Transfer 4564.6 mg±0.5 mg of potassium phosphate dibasic, trihydrate to a 2-L volumetric flask. • Fill flask to approximately 75% volume with water, swirl as needed to dissolve all solids. • Volumetrically transfer 32.0 mL of 1N KOH to flask. • Dilute flask to volume with water and mix well. • Record pH of final solution. This is the diluent. • Transfer 7653.1 mg±0.5 mg of (R,R)-pyrodach-2 to a compounding vessel. • Transfer 1500 mL of the diluent to the vessel and stir to dissolve solids. • Record pH of final solution. • Pass entire solution through a 0.22 μm sterile filter membrane into a sterile collection vessel. • Calculate (R,R)-pyrodach-2 solution concentration
To a […] glass beaker equipped with mechanical mixer was add 24645.5 g of sterile water for injection. With agitation 47.03 gm of dibasic potassium phosphate USP was added and the solids allowed to dissolve. To the stirred solution was added 253.8 gm of 1.00 N potassium hydroxide. Sterile water for injection USP (900.0 gm) was used as a rinse to facilitate both additions. With vigorous agitation, (R,R)-pyrodach-2 (201.87 gm) was slowly added and agitation continued until all of the solids dissolved. Sterile water for injection USP (900.0 gm) was used as a rinse to facilitate the addition. The pH was determined to be 6.7. A total of 85 mL of 1.00 N potassium hydroxide was added in 5.0 mL aliquots to adjust the pH to 7.3. The solution was sterile filtered through 0.22μ Millipore Millipack filter and aseptically filled, 10 ml top a vial in 10 mL in 10 cc Wheaton clear molded vails, stoppered with a 20 mm stopper and crimp seal capped.

In the case of O=P1(O)OP(=O)(O)[O][Pt]2([NH][C@@H]3CCCC[C@H]3[NH]2)[O]1 (stereo partly drawn) [(R,R)-pyrodach-2, (R,R)-trans-1,2-cyclohexanediamine-(dihydrogenpyrophosphato)platinum(II)], the “(DACH) Pt-diaquo (~RRT 0.3)” value (1 Month) is reported as 0.16%, the “(DACH) Pt-monoaquo (~RRT 0.7)” value (1 Month) is reported as 1.12% and the “Assay (Potency)” value (1 Month) is reported as 98.4%. For the same compound, the “PT-112 Dimer (~RRT 4.0)” value (1 Month) was 0.35%, the “RRT 0.50” value (1 Month) was 0.07% and the “RRT 0.56” value (1 Month) was 0.15%. The “RRT 0.68” value (1 Month) was 0.21%, the “RRT 0.86” value (1 Month) was 0.06% and the “RRT 3.1-3.2” value (1 Month) was 0.56%. For the same compound, the “Total Related Substances” value (1 Month) was 3%, the pH (1 Month) was 7.4 and the “(DACH) Pt-diaquo (~RRT 0.3)” value (3 Month) was 0.15%. For the same compound, the “(DACH) Pt-monoaquo (~RRT 0.7)” value (3 Month) was 0.92%, the “Assay (Potency)” value (3 Month) was 99.2% and the “PT-112 Dimer (~RRT 4.0)” value (3 Month) was 0.33%. The “RRT 0.50” value (3 Month) was 0.11%, the “RRT 0.56” value (3 Month) was 0.20% and the “RRT 0.68” value (3 Month) was 0.11%. The “RRT 0.86” value (3 Month) was 0.05%, the “RRT 3.1-3.2” value (3 Month) was 0.77% and the “RRT 3.58” value (3 Month) was 0.14%. The “Total Related Substances” value (3 Month) was 3%, the pH (3 Month) was 7.4 and the “(DACH) Pt-diaquo (~RRT 0.3)” value (6 Month) was 0.19%. The “(DACH) Pt-monoaquo (~RRT 0.7)” value (6 Month) was 0.30%, the “Assay (Potency)” value (6 Month) was 96.7% and the “PT-112 Dimer (~RRT 4.0)” value (6 Month) was 0.36%. For the same compound, the “RRT 0.42” value (6 Month) was 0.06%, the “RRT 0.46” value (6 Month) was 0.09% and the “RRT 0.50” value (6 Month) was 0.31%. The “RRT 0.56” value (6 Month) was 0.09%, the “RRT 0.68” value (6 Month) was 0.16% and the “RRT 0.86” value (6 Month) was 0.07%. For the same compound, the “RRT 3.1-3.2” value (6 Month) was 0.86%, the “RRT 3.58” value (6 Month) was 0.37% and the “RRT 4.95” value (6 Month) was 0.06%. The “Total Related Substances” value (6 Month) was 3%, the pH (6 Month) was 7.4 and the “Particulate Matter (Light Obscuration)” value (6 Month, first value) was 87 particles particles per container. For the same compound, the “Particulate Matter (Light Obscuration)” value (6 Month, second value) was 3 particles particles per container, the “(DACH) Pt-diaquo (~RRT 0.3)” value (9 Month) was 0.14% and the “(DACH) Pt-monoaquo (~RRT 0.7)” value (9 Month) was 0.79%. The “Assay (Potency)” value (9 Month) was 98.2%, the “PT-112 Dimer (~RRT 4.0)” value (9 Month) was 0.34% and the “RRT 0.42” value (9 Month) was 0.08%. For the same compound, the “RRT 0.46” value (9 Month) was 0.08%, the “RRT 0.50” value (9 Month) was 0.39% and the “RRT 0.56” value (9 Month) was 0.11%. For the same compound, the “RRT 0.68” value (9 Month) was 0.11%, the “RRT 0.86” value (9 Month) was 0.06% and the “RRT 3.1-3.2” value (9 Month) was 0.84%. The “RRT 3.41” value (9 Month) was 0.08%, the “RRT 3.58” value (9 Month) was 0.65% and the “RRT 4.95” value (9 Month) was 0.21%. The “Total Related Substances” value (9 Month) was 4%, the pH (9 Month) was 7.4 and the “(DACH) Pt-diaquo (~RRT 0.3)” value (12 Month) was 0.11%. For the same compound, the “(DACH) Pt-monoaquo (~RRT 0.7)” value (12 Month) was 0.92%, the “Assay (Potency)” value (12 Month) was 98.0% and the “PT-112 Dimer (~RRT 4.0)” value (12 Month) was 0.30%. For the same compound, the “RRT 0.42” value (12 Month) was 0.10%, the “RRT 0.46” value (12 Month) was 0.07% and the “RRT 0.50” value (12 Month) was 0.38%. The “RRT 0.56” value (12 Month) was 0.19%, the “RRT 0.68” value (12 Month) was 0.11% and the “RRT 0.86” value (12 Month) was 0.05%. For the same compound, the “RRT 3.1-3.2” value (12 Month) was 0.82%, the “RRT 3.58” value (12 Month) was 0.70% and the “RRT 4.95” value (12 Month) was 0.34%. The “Total Related Substances” value (12 Month) was 4%, the pH (12 Month) was 7.5 and the “Particulate Matter (Light Obscuration)” value (12 Month, first value) was 118 particles per container. For the same compound, the “Particulate Matter (Light Obscuration)” value (12 Month, second value) was 7 particles particles per container, the “(DACH) Pt-diaquo (~RRT 0.3)” value (15 Month) was 0.13% and the “(DACH) Pt-monoaquo (~RRT 0.7)” value (15 Month) was 0.92%. The “Assay (Potency)” value (15 Month) was 96.8%, the “PT-112 Dimer (~RRT 4.0)” value (15 Month) was 0.28% and the “RRT 0.42” value (15 Month) was 0.12%. For the same compound, the “RRT 0.46” value (15 Month) was 0.08%, the “RRT 0.50” value (15 Month) was 0.44% and the “RRT 0.56” value (15 Month) was 0.20%. The “RRT 0.68” value (15 Month) was 0.11%, the “RRT 0.86” value (15 Month) was 0.05% and the “RRT 3.1-3.2” value (15 Month) was 0.78%. The “RRT 3.58” value (15 Month) was 0.78%, the “RRT 4.95” value (15 Month) was 0.51% and the “Total Related Substances” value (15 Month) was 4%. The pH (15 Month) was 7.5, the “(DACH) Pt-diaquo (~RRT 0.3)” value (18 Month) was 0.12% and the “(DACH) Pt-monoaquo (~RRT 0.7)” value (18 Month) was 0.78%. For the same compound, the “Assay (Potency)” value (18 Month) was 96.9%, the “PT-112 Dimer (~RRT 4.0)” value (18 Month) was 0.29% and the “RRT 0.42” value (18 Month) was 0.15%. The “RRT 0.46” value (18 Month) was 0.13%, the “RRT 0.50” value (18 Month) was 0.59% and the “RRT 0.56” value (18 Month) was 0.09%. The “RRT 0.68” value (18 Month) was 0.08%, the “RRT 0.86” value (18 Month) was 0.05% and the “RRT 3.1-3.2” value (18 Month) was 0.73%. The “RRT 3.44” value (18 Month) was 0.12%, the “RRT 3.58” value (18 Month) was 1.06% and the “RRT 4.95” value (18 Month) was 0.69%. For the same compound, the “Total Related Substances” value (18 Month) was 5%, the pH (18 Month) was 7.5 and the “(DACH) Pt-diaquo (~RRT 0.3)” value (21 Month) was 0.11%. The “(DACH) Pt-monoaquo (~RRT 0.7)” value (21 Month) was 1.13%, the “Assay (Potency)” value (21 Month) was 96.3% and the “PT-112 Dimer (~RRT 4.0)” value (21 Month) was 0.28%. For the same compound, the “RRT 0.42” value (21 Month) was 0.16%, the “RRT 0.46” value (21 Month) was 0.12% and the “RRT 0.50” value (21 Month) was 0.60%. The “RRT 0.56” value (21 Month) was 0.17%, the “RRT 0.68” value (21 Month) was 0.12% and the “RRT 3.1-3.2” value (21 Month) was 0.75%. For the same compound, the “RRT 3.41” value (21 Month) was 0.07%, the “RRT 3.44” value (21 Month) was 0.05% and the “RRT 3.58” value (21 Month) was 1.12%. For the same compound, the “RRT 4.95” value (21 Month) was 0.89%, the “Total Related Substances” value (21 Month) was 6% and the pH (21 Month) was 7.4. For the same compound, the “(DACH) Pt-diaquo (~RRT 0.3)” value (24 Month) was 0.11%, the “(DACH) Pt-monoaquo (~RRT 0.7)” value (24 Month) was 0.85% and the “Assay (Potency)” value (24 Month) was 94.6%. The “PT-112 Dimer (~RRT 4.0)” value (24 Month) was 0.28%, the “RRT 0.42” value (24 Month) was 0.18% and the “RRT 0.46” value (24 Month) was 0.12%. The “RRT 0.50” value (24 Month) was 0.70%, the “RRT 0.56” value (24 Month) was 0.17% and the “RRT 0.68” value (24 Month) was 0.13%. For the same compound, the “RRT 0.86” value (24 Month) was 0.05%, the “RRT 3.1-3.2” value (24 Month) was 0.72% and the “RRT 3.29” value (24 Month) was 0.06%. For the same compound, the “RRT 3.44” value (24 Month) was 0.05%, the “RRT 3.58” value (24 Month) was 1.07% and the “RRT 4.95” value (24 Month) was 1.12%. The “Total Related Substances” value (24 Month) was 6%, the pH (24 Month) was 7.4 and the “(DACH) Pt-diaquo (~RRT 0.3)” value (Initial) was 0.16%. For the same compound, the “(DACH) Pt-monoaquo (~RRT 0.7)” value (Initial) was 0.84%, the “Assay (Potency)” value (Initial) was 98.1% and the “PT-112 Dimer (~RRT 4.0)” value (Initial) was 0.34%. The “RRT 0.50” value (Initial) was 0.06%, the “RRT 0.56” value (Initial) was 0.08% and the “RRT 0.68” value (Initial) was 0.09%. The “RRT 3.1-3.2” value (Initial) was 0.11%, the “Total Related Substances” value (Initial) was 2% and the pH (Initial) was 7.4. For the same compound, the “Particulate Matter (Light Obscuration)” value (Initial, first value) was 30 particles particles per container and 30 particles per particles per container and the “Particulate Matter (Light Obscuration)” value (Initial, second value) was 11 particles particles per container and 11 particles per particles per container.
